# Laboratory results from patent publication US9669003B2, “Use of flavone and flavanone derivatives in preparation of sedative and hypnotic drugs” (priority 2012, dated 2017).
# Marks after values point to notes of the source that are not given here.
# Key:
# Type in all cases: in vivo
# Kunming mice [1] = test: Influence on autonomic activity of normal mice (ZIL-2 mice autonomic activity meter, counts within 10 min); details: intragastric, x ± s, n = 10; for Times of activities in 1 h after drug administration/10 min: 1 h after administration; for Times of activities in 2 h after drug administration/10 min: 2 h after administration; for Times of activities in 24 h after drug administration/10 min: 24 h after administration
# How it was run: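 Kunming mice (10 per group, half each sex) were dosed at 25, 50 or 100 mg/kg in 0.5% CMC-Na. Spontaneous activity counts over 10 min were recorded at 1 h, 2 h and 24 h post-dose. Groups were compared by ANOVA with Dunnett's test after Levene's check.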
# Kunming mice [2] = test: Influence on hypnosis effect with pentobarbital sodium doses below the threshold (25 mg/kg i.p.); details: pentobarbital sodium 25 mg/kg i.p. 60 min later, sleep observed in 30 min, n = 10
# How it was run: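 Kunming mice (10 per group, half female) given single oral doses of 25, 50 or 100 mg/kg in 0.5% CMC-Na; 60 min later pentobarbital sodium 25 mg/kg i.p. Sleep (righting reflex lost >1 min) scored within 30 min as percentage asleep, χ2 test.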
# Kunming mice [3] = test: Influence on hypnosis effect with pentobarbital sodium doses at the threshold (50 mg/kg i.p.); details: pentobarbital sodium 50 mg/kg i.p. 60 min later, x ± s, n = 10
# How it was run: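 Kunming mice (10/group, half each sex) received compound in 0.5% CMC-Na intragastrically at 25, 50 or 100 mg/kg; 60 min later given 0.3% sodium pentobarbital 50 mg/kg i.p. Sleep latency and duration recorded by loss of righting reflex over 1 min; ANOVA and χ2 for sleep incidence.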
# [4] = test drug 25 mg/kg intragastric single dose
# [5] = test drug 50 mg/kg intragastric single dose
# [6] = test drug 100 mg/kg intragastric single dose
# [7] = 25 mg/kg intragastric single dose
# [8] = 50 mg/kg intragastric single dose
# [9] = 100 mg/kg intragastric single dose
compound,measurement,setting,value
O=C1CC(c2ccc(O)c(O)c2)Oc2cc(O)cc(O)c21 (stereo not drawn) [Example 71],Times of activities in 1 h after drug administration/10 min,Kunming mice [1]; 25 mg/kg,301.5 ± 58.2 /10 min
same,Times of activities in 2 h after drug administration/10 min,Kunming mice [1]; 25 mg/kg,267.8 ± 32.9 /10 min
same,Times of activities in 24 h after drug administration/10 min,Kunming mice [1]; 25 mg/kg,318.0 ± 66.9 /10 min
same,Times of activities in 1 h after drug administration/10 min,Kunming mice [1]; 50 mg/kg,278.9 ± 45.0 /10 min
same,Times of activities in 2 h after drug administration/10 min,Kunming mice [1]; 50 mg/kg,263.0 ± 46.3 /10 min
same,Times of activities in 24 h after drug administration/10 min,Kunming mice [1]; 50 mg/kg,322.9 ± 81.4 /10 min
same,Times of activities in 1 h after drug administration/10 min,Kunming mice [1]; 100 mg/kg,249.3 ± 41.3 /10 min
same,Times of activities in 2 h after drug administration/10 min,Kunming mice [1]; 100 mg/kg,245.8 ± 39.6 /10 min
same,Times of activities in 24 h after drug administration/10 min,Kunming mice [1]; 100 mg/kg,325.7 ± 60.9 /10 min
same,Number of sleeping animals,Kunming mice [2]; [4],3
same,rate of sleeping (%),Kunming mice [2]; [4],30%
same,Number of sleeping animals,Kunming mice [2]; [5],5
same,rate of sleeping (%),Kunming mice [2]; [5],50* %
same,Number of sleeping animals,Kunming mice [2]; [6],6
same,rate of sleeping (%),Kunming mice [2]; [6],60** %
same,duration of sleep,Kunming mice [3]; [7],30.48 ± 22.67 min
same,time to sleep,Kunming mice [3]; [7],5.55 ± 1.83 min
same,duration of sleep,Kunming mice [3]; [8],36.63 ± 20.19 min
same,time to sleep,Kunming mice [3]; [8],3.73 ± 1.39 min
same,duration of sleep,Kunming mice [3]; [9],56.62 ± 24.57 min
same,time to sleep,Kunming mice [3]; [9],3.82 ± 1.40 min
